Legend:
OPTEC tubules [1] = conditions: 48 h
Protocol: Before beginning these experiments, three important steps were carried out: (1) all reservoirs were supplied with fresh media, (2) all outlet tubing was cut to the same length, and (3) all chips were subjected to one-way rather than recirculating back to the media reservoir. After each chip within the MCDs was subjected to one-way flow (2 μL/min) for 4 h, a baseline sample of the perfusate was collected from the luminal outlet tubing for 3 h into a 1.6 mL Eppendorf tube. Next, cisplatin (50 μM) or aristolochic acid (25 μM) was delivered basolaterally on chip by manually pipetting each drug solution to the appropriate basal media reservoir. Next, all tubing was reconnected to the peristaltic pump and allowed to flow at a flow rate of 2 μL/min. After 48 h, another sample of the perfusate was collected from the luminal outlet tubing for 3 h into a 1.6 mL Eppendorf tube. All collected luminal media samples were spun down at 5000 rcf for 5 min to remove cellular debris. Each supernatant was transferred to a fresh tube and stored at −20° C. to run the LDH assay. For samples pre-treated with inhibitors, cimetidine (1 mM) or probenecid (2 mM) was first added to the basal reservoir, delivered basolaterally, and allowed to diffuse through the gelatin-fibrin matrix during recirculating flow for 1 h.
LDH assays were performed according to the manufacturer's instructions (Promega, CytoTox Non-Radioactive Cytotoxicity Assay, G1780). The frozen media samples were thawed at room temperature and used after this first thaw cycle. Next, 50 μL of each media was transferred to a 96-well plate and incubated at 37° C. for 30 min with 50 μL of CytoTox 96 reagent. 50 μL of stop solution was then added, all bubbles were removed using a syringe, and their absorbance was recorded at 490 nm using a plate reader.
(§1) Normalized LDH release was calculated using the following equation: […]
LDH48 was the recorded absorbance of the 48-h perfusate sample and LDHbaseline was the recorded absorbance of baseline perfusate sample before drug exposure. Normalized LDH release was calculated for each of the tubules individually and plotted into sample groups comparing OPTEC-on-chip and PTEC-TERT1-on-chip models subjected to each drug ±inhibitor.
To assess nephrotoxicity, luminal perfusate was collected and LDH analyses were performed. LDH is a cytosolic enzyme found in nearly all cell types, including PTECs, that is released upon cellular damage^29. […] Due to differences in their baseline LDH release among different tubules across the two cell types, a normalized LDH release (LDH release at 48 h relative to baseline release) was determined for each sample, i.e., OPTEC and PTEC-TERT1 tubules without drug, with drug, and with drug and corresponding inhibitors for OCT2 and OAT1/3 transporters, respectively.

PTEC-TERT1 tubules = assay: Nephrotoxicity testing: normalized LDH release in luminal perfusate of PTEC-TERT1-on-chip tubules (control chips); format: cell-based, human
Protocol: Before beginning these experiments, three important steps were carried out: (1) all reservoirs were supplied with fresh media, (2) all outlet tubing was cut to the same length, and (3) all chips were subjected to one-way rather than recirculating back to the media reservoir. After each chip within the MCDs was subjected to one-way flow (2 μL/min) for 4 h, a baseline sample of the perfusate was collected from the luminal outlet tubing for 3 h into a 1.6 mL Eppendorf tube. Next, cisplatin (50 μM) or aristolochic acid (25 μM) was delivered basolaterally on chip by manually pipetting each drug solution to the appropriate basal media reservoir. […]
LDH assays were performed according to the manufacturer's instructions (Promega, CytoTox Non-Radioactive Cytotoxicity Assay, G1780). […] 50 μL of stop solution was then added, all bubbles were removed using a syringe, and their absorbance was recorded at 490 nm using a plate reader.
as §1
LDH48 was the recorded absorbance of the 48-h perfusate sample and LDHbaseline was the recorded absorbance of baseline perfusate sample before drug exposure. Normalized LDH release was calculated for each of the tubules individually and plotted into sample groups comparing OPTEC-on-chip and PTEC-TERT1-on-chip models subjected to each drug ±inhibitor. […]

UB cells = assay: FITC-inulin retention in perfused epithelialized UB channels on chip (barrier function); format: cell-based, human; conditions: perfused epithelialized UB channels vs empty channels, after 1 hour
Protocol: To fabricate this chip, first the various chip components were assembled (FIG. 17A) and ECM was added to an inner reservoir around a pin and crosslinked. The pin was then removed forming an open channel that can be seeded with cells (FIG. 17B). This design allowed for easy access to the ECM and medium bathing the ECM. After seeding, cells formed confluent monolayers along channel walls within 3-7 days (FIG. 16C,D,E). Perfused epithelialized channels retained FITC-inulin after 1 hour relative to empty channels, indicating barrier function (FIG. 16F,G).

OPTEC tubules [2] = assay: Diffusional permeability measurement of FITC-inulin through tubules on chip; format: cell-based, human; conditions: 4.5 kDa FITC-inulin 100 μg/mL perfused through lumen, OPTEC tubules vs PTEC-TERT1 tubules (control)
Protocol: The barrier function of the 3D OPTECs- and PTEC-TERT1 s based models was assessed by measuring the diffusional permeability of 4.5 kDa inulin. This compound was selected because is neither up taken up nor secreted by PTECs in-vivo. FITC-labeled inulin (Sigma product F3272) was dissolved in prewarmed LPTEC media at a concentration of 100 μg/mL and perfused through the luminal channel at a rate of 20 μL/min for 3 min and 1.5 μL/min thereafter for 15 min. The diffusion of FITC-inulin was calculated by: […]
Where Pd is the diffusional permeability coefficient, I1 is the average intensity at the initial time point, I2 is the average intensity at time t, Ib is the background intensity taken before perfusion of FITC-inulin, and dis the diameter of the channel^13.

OPTECs = assay: 2D OPTEC culture with media supplements to minimize epithelial to mesenchymal transition; format: cell-based, human
Protocol: Organoid-derived PTECs (OPTECs) were cultured in 24-well plates pretreated with 1:20 laminin-511 (Biolamina LN511) in DPBS with calcium and magnesium. For passages 0 and 1, the OPTECs were cultured in REGM media supplemented with 1% FBS. Upon reaching passage 2, the OPTECs were cultured using LPTEC media supplemented with 1% FBS and 10 μM SB431542 (ab120163). Each passage was performed when the cells reached ˜90% confluency by first washing the cells with DPBS without calcium and magnesium, treating with 0.05% trypsin/EDTA for 3-5 min (or until cells lifted off the plate), followed by quenching with culture medium, centrifuging at 240 ref for 4 min, resuspending in culture media, and seeding each laminin pre-treated well at a density of 70,000-100,000 cells/cm^2.
Next, the effects of two different media were tested: (1) modified DMEM F-12 medium described by previous work^14 (LPTEC) and (2) commercially available renal epithelial growth medium (REGM). […] To further promote cell attachment, growth, and proliferation, 1% FBS was added to the media. To minimize epithelial to mesenchymal transition (EMT), the effects of transforming growth factor (TGF-β), bone morphogenic protein 7 (BMP7) and TGF-β/activin/NODAL pathway (SB431542) inhibitors were explored (FIG. 6k-l)^26. […]

## N.N.[Cl][Pt][Cl] [cisplatin]
OPTEC tubules [1]; 50 μM cisplatin delivered basolaterally, OPTEC tubules on chip
  normalized LDH response compared to PTEC-TERT1 s: significantly higher

## CN/C(=N/CCSCc1nc[nH]c1C)NC#N [cimetidine]
OPTEC tubules [1]; cimetidine 1 mM pre-treatment, 50 μM cisplatin, OPTEC tubules
  decrease of normalized LDH release upon OCT2 inhibitor (factor): > 2
PTEC-TERT1 tubules; cimetidine 1 mM, same cisplatin dose (50 μM)
  effect of OCT2 inhibition on normalized LDH release: far less effect

## FITC-inulin
UB cells
  retention of FITC-inulin in channel (barrier function): retained
OPTEC tubules [2]
  diffusional permeability: comparable to that observed for PTEC-TERT1 tubules

## CCCN(CCC)S(=O)(=O)c1ccc(C(=O)O)cc1 [probenecid]
OPTEC tubules [1]; probenecid 2 mM pre-treatment, 25 μM aristolochic acid, OPTEC tubules
  normalized LDH release upon OAT1/3 inhibitor: substantially reduced
PTEC-TERT1 tubules; probenecid 2 mM, same aristolochic acid dose (25 μM)
  effect of OAT1/3 inhibition on normalized LDH release: negligible effect

## COc1cccc2c1cc([N+](=O)[O-])c1c(C(=O)O)cc3c(c12)OCO3 [aristolochic acid]
OPTEC tubules [1]; 25 μM aristolochic acid delivered basolaterally, OPTEC tubules on chip
  LDH release compared to PTEC-TERT1 tubules: significantly higher

## NC(=O)c1ccc(-c2nc(-c3ccc4c(c3)OCO4)c(-c3ccccn3)[nH]2)cc1 [SB431542]
OPTECs; 10 μM, OPTECs 2D culture
  cell morphology during prolonged cell culture: cuboidal cell morphology
OPTECs; SB431542 as media supplement, 2D culture
  EMT marker expression in 2D OPTEC monolayers: down regulation of EMT markers

Reference: patent US20250304893A1, “PERFUSABLE 3D TUBULE-ON-CHIP MODEL DERIVED FROM KIDNEY ORGANOIDS WITH IMPROVED DRUG UPTAKE” (President and Fellows of Harvard College, priority 2022, published 2025)
